Measurements: US12454530B2, “Amido cyclohexane acid derivatives as LPA receptor inhibitors” (CHIESI FARMACEUTICI S.P.A., priority 2020, dated 2025)

How the values were obtained:
[1] = Permeability on Caco-2 cells monolayers; type: in vitro ADME; conditions: human, with Elacridar 10 µM (PgP inhibitor), Papp A>B with PgP inhibitor Elacridar, 10 μM compound, read-out: Passive Permeability
Protocol: Even more advantageously, the compounds of formula (I) of the present invention are also endowed with a good permeability profile that, in its turn, can ensure a suitable bioavailability for an oral administration. The permeability was assessed in human Caco 2 cell line, an in vitro model that mimic human gastrointestinal barrier and so useful to predic oral absorption.
The permeability of the compounds of the present invention was evaluated performing the assay on Caco-2 cells monolayers (human colon adenocarcinoma immortalized cell) by measuring the transport of compound (absorption and secretion) in both directions: apical to basolateral direction (A>B) and basolateral to apical (B>A) with and without PgP inhibitor (Elacridar).
The cells, purched from ReadyCell in 96 well format (Cod. KRECE-CCR50), were cultured by the supplier for 21 day on transwell supports in DMEM 1 g/L glucose culture medium supplemented with Fetal Bovin Sierum (10%), Glutamine 200 mM (1%) and Penicillin 10000 U/ml-10 mg/ml Streptomycin (1%).
On day 21 of colture, cell monolayers integrity was verified by measuring the trans-epithelial electric resistance (TEER) using the EVOM equipment (Endohm, WPI, Germany) and studying the apparent permeability (Papp) of reference compounds (Sulpiride and Metoprolol). Furthermore, as a control, the Talinolol 10 uM (Pgp efflux substrate) with and without Elacridar in both directions was used.
The sample solution was prepared dissolving test compound in DMSO at the concentration of 10 mM and then diluted in the Assay Buffer (Hank's Balance Salt Solution) warmed at 37° C. before use, to give the 10 μM Compound working solution with and without 10 μM Elacridar. These working solutions were added to donor compartment (apical for A>B direction and basolateral for B>A direction) and Assay Buffer (Hank's Balance Salt Solution) to the receiver compartment (basolateral for A>B direction and apical for B>A direction). The plate was incubated at 37° C. for 120 min, all incubation were conducted in triplicates. At the end of incubation, samples from donor and receiver compartments were collected for HPLC-MS/MS analyses.
The permeability coefficients (Papp) in both directions: apical to basolateral (A>B) and basolateral to apical (B>A) with and without PgP inhibitor (Elacridar) was calculated in nm/sec, using the following equation:
[formula] • where: • Cr=measured concentration in the receiver well at the time t (expressed as IS ratio) • Vr=volume of the receiver well (ml) • t=time (sec) • A=membrane surface area (cm^2) • C0=initial donor concentration • Passive Papp is considered Papp A>B with PgP inhibitor Elacridar.

[2] = target: BSEP (Homo sapiens (Human), UniProt O95342); test: BSEP inhibition: biliary clearance of Taurocolic Acid in sandwich-cultured human hepatocytes; type: in vitro ADME; conditions: sandwich-cultured cryopreserved human hepatocytes, probe Taurocolic Acid (TCA); 50 μM test compound, 10 μM TCA, human hepatocytes sandwich configuration
BSEP, sequence (O95342 whole entry): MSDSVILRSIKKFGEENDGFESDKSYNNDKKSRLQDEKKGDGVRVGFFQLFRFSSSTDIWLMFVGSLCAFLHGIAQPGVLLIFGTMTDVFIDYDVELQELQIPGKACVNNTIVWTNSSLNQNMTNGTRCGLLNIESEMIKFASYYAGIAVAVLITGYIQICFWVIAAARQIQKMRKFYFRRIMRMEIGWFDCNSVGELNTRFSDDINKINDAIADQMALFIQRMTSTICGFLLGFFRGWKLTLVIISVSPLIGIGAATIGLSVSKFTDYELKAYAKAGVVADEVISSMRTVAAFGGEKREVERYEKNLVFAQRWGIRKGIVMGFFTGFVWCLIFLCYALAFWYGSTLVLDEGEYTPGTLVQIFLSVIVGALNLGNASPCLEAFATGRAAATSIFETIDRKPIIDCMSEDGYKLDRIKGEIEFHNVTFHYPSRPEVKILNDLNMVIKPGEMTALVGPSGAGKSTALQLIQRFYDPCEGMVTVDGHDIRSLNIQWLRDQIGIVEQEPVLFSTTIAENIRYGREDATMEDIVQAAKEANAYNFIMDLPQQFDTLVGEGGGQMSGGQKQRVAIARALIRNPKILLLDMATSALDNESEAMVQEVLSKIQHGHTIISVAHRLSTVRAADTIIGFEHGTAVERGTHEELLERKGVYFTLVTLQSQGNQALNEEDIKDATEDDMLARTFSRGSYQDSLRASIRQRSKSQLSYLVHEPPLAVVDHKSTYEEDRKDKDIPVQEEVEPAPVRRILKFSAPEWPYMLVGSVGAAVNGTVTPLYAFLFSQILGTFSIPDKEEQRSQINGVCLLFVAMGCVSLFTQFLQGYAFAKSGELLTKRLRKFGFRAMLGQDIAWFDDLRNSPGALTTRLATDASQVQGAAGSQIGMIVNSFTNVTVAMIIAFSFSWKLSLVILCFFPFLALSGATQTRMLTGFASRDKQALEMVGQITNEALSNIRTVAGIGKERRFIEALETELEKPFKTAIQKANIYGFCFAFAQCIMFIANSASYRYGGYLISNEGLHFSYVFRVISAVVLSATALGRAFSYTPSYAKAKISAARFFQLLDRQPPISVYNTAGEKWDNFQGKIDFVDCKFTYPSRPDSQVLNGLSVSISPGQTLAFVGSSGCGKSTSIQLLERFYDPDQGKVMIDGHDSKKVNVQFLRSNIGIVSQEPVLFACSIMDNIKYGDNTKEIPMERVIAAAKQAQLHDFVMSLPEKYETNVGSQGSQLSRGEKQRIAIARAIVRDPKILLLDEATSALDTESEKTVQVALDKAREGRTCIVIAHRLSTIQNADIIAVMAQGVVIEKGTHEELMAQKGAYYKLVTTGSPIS
Protocol: BSEP inhibition was evaluated using human hepatocytes cultured between two layer of collagen (sandwich configuration). In this culture condition, hepatocytes express relevant transporters including BSEP and retain the bile canalicular structure. An inhibition of the biliary clearance of Taurocolic Acid (TCA), a known BSEP substrate, was used to assess BSEP interaction.
BSEP inhibition was evaluated using cryopreserved human hepatocytes (Plateable Cryopreserved Human Hepatocytes, BIOIVT) cultured for 5 day between two layer of collagen (sandwich configuration). In this culture condition, hepatocytes express relevant transporters including BSEP and retain the bile canalicular structure.
On day 5 of culture, hepatic cells are ready for the assay and the biliary clearance of Taurocolic Acid (TCA), a known BSEP substrate, can be estimated in presence and in absence of compound of interest.
The sample solution was prepared dissolving test compound and TCA in DMSO and then diluted in the Assay Buffer: Hank's Balance Salt Solution (HBSS+) warmed at 37° C. before use, to give the 10 μM TCA working solution with and without 50 μM of test compound. Hepatocytes were incubated for 10 minutes with these working solutions allowing TCA to be excreted into bile. At the end of incubation, the working solution was aspirated, and the content of the bile was collected through the addition of HBSS Modified without Ca2+/Mg2+(HBSS−). The presence of Ca2+ in the buffer is required to maintain the integrity of the tight junctions, the diffusional barrier between the canalicular lumen and extracellular space. Instead, incubation of cells in Ca2+-free buffer disrupts the tight junctions and opens the bile canalicular structures, allowing the bile content to be released and collect for HPLC-MS/MS analysis.
The in vitro biliary clearance of TCA incubated with and without test compounds is calculated according to the following formula:
where • Acc. Bile=(TCA amount in HBSS (−) buffer samples (pmol/mg protein)*Volume of each samples (mL))/Protein content per well (mg) • AUC=Incubation time (min)*T0 Concentration. T0 concentration is the initial TCA concentration in the medium.
The inhibition of BSEP was calculated as percentage of inhibition of TCA biliary clearance in presence of compound of interest, according to the following formula: BSEP inhibition %=100−(TCA ClBil with test compound*100)
TCA ClBil without test compound.

Row | SMILES | Papp at 120 min, 10 µM [1] [×10⁻⁶ cm/s] | inhibition at 10 min, 50 μM [2] [%]
1 | Cc1nc(-c2onc(C)c2NC(=O)O[C@H](C)c2ccccc2Cl)ccc1NC(=O)[C@@H]1CCCC[C@H]1C(=O)O [Example 12, (1R,2R)-2-((6-(4-((((R)-1-(2-chlorophenyl)ethoxy)carbonyl)amino)-3-methylisoxazol-5-yl)-2-methylpyridin-3-yl)carbamoyl)cyclohexane-1-carboxylic acid] | ≥ 1.5 | ≤ 50
2 | Cc1noc(-c2ccc(NC(=O)[C@H]3CCCC[C@@H]3C(=O)O)cc2)c1NC(=O)O[C@H](C)c1ccccc1Cl [comparative Example A, (1S,2S)-2-({4-[3-methyl-4-({[(1R)-1-(2-chlorophenyl)ethoxy]carbonyl}amino)-1,2-oxazol-5-yl]phenyl}carbamoyl)cyclohexane-1-carboxylic acid, reference compound] | < 1.5 | > 70
3 | Cc1nc(-c2onc(C)c2NC(=O)O[C@H](C)c2ccccc2Cl)ccc1NC(=O)C1CCCCC1C(=O)O (single isomer, unassigned) [Example 13] | ≥ 1.5 | ≤ 50
4 | Cc1noc(-c2ccc(NC(=O)[C@H]3CCCC[C@@H]3C(=O)O)cn2)c1NC(=O)O[C@H](C)c1ccccc1Cl [Example 16, (1S,2S)-2-((6-(4-((((R)-1-(2-chlorophenyl)ethoxy)carbonyl)amino)-3-methylisoxazol-5-yl)pyridin-3-yl)carbamoyl)cyclohexane-1-carboxylic acid] | ≥ 1.5 | ≤ 50
5 | Cc1nc(-c2onc(C)c2NC(=O)O[C@H](C)c2ccccc2Cl)ccc1NC(=O)[C@H]1CCCC[C@@H]1C(=O)O [Example 1, (1S,2S)-2-((6-(4-((((R)-1-(2-chlorophenyl)ethoxy)carbonyl)amino)-3-methylisoxazol-5-yl)-2-methylpyridin-3-yl)carbamoyl)cyclohexane-1-carboxylic acid] | ≥ 1.5 | ≤ 50

Second part, led by results:

Row | Papp at 120 min, 10 µM [1] [×10⁻⁶ cm/s] | SMILES | inhibition at 10 min, 50 μM [2] [%]
6 | ≥ 1.5 | Cc1ccccc1[C@@H](C)OC(=O)Nc1c(C)noc1-c1ccc(NC(=O)[C@H]2CCCC[C@@H]2C(=O)O)c(C)n1 [Example 32, (1S,2S)-2-((2-methyl-6-(3-methyl-4-((((R)-1-(o-toly1)ethoxy)carbonyl)amino)isoxazol-5-yl)pyridin-3-yl)carbamoyl)cyclohexane-1-carboxylic acid] | ≤ 50
7 | ≥ 1.5 | Cc1nc(-c2onc(C)c2NC(=O)O[C@H](C)c2ccccc2)ccc1NC(=O)C1CCCCC1C(=O)O (stereo partly drawn) [Example 39, Cis-2-((2-methyl-6-(3-methyl-4-((((R)-1-phenylethoxy)carbonyl)amino)isoxazol-5-yl)pyridin-3-yl)carbamoyl)cyclohexane-1-carboxylic acid] | ≤ 50
8 | ≥ 1.5 | CCC[C@@H](C)OC(=O)Nc1c(C)noc1-c1ccc(NC(=O)[C@H]2CCCC[C@@H]2C(=O)O)c(C)n1 [Example 49, (1S,2S)-2-((2-methyl-6-(3-methyl-4-(((((R)-pentan-2-yl)oxy)carbonyl)amino)isoxazol-5-yl)pyridin-3-yl)carbamoyl)cyclohexane-1-carboxylic acid] | ≤ 50
